According to patent US5405837A, “Method for the treatment of neoplastic disease utilizing tiazofurin and ribavirin” (Indiana University Foundation, priority 1993, dated 1995):

Experiments:
[1] = test system: spontaneous leukemia; conditions: in some cases; Cancer Research 36:631-639 (1976); cited from earlier work
[2] = test system: rat bone marrow; assay: Ribavirin alone versus tiazofurin, IMP DH activity and cellularity in rat bone marrow (FIGS. 1 and 2); type: in vivo; conditions: at lower doses
Description: (see FIGS. 1 and 2). […] Bekesi, J. G. et al., Treatment of Spontaneous Leukemia in AKR Mice with Chemotherapy, Immunotherapy, or Interferon, Cancer Research 36:631-639 (1976).
FIG. 1 is a graph of experimental data showing the effect of Tiazofurin and subsequent Ribavirin treatment on IMP DH activity in rat bone marrow.
FIG. 2 is a graph of experimental data showing the effect of Tiazofuran and subsequent Ribavirin treatment on cellularity in rat bone marrow.

[3] = test system: IMP DH; assay: IMP DH activity in ACI/N rats bearing s.c. transplanted hepatoma 3924A after tiazofurin and subsequent ribavirin; type: in vivo, rat
Experimental: In this example, ACI/N rats bearing s.c. transplanted hepatoma 3924A were administered daily i.p. injections of 150 mg/kg tiazofurin (trade name Tiazole, Viratek, Inc.) for two days. The rats were then divided into two groups: one received daily i.p. injections of saline, the other received 100 mg/kg ribavirin (trade name Virazole, Viratek, Inc.) for an additional two days.
Tiazofurin reduced the IMP DH activity to 10% and ribavirin maintained the inhibition of IMP DH activity at 20-30% of the control values. The IMP DH activity in the saline-treated rats returned to the untreated levels. (see FIGS. 1 through 5).

| SMILES | antitumor effect [1] | effectiveness when administered alone [2] | IMP DH activity, % of the control values ([3]; 100 mg/kg ribavirin daily i.p. for two more days after two days of tiazofurin 150 mg/kg) | IMP DH activity ([3]; 150 mg/kg tiazofurin daily i.p. for two days, ACI/N rats with hepatoma 3924A) [%] |
| --- | --- | --- | --- | --- |
| NC(=O)c1ncn([C@@H]2O[C@H](CO)[C@@H](O)[C@H]2O)n1 [ribavirin, 1-β-D-ribofuranosyl-1,2,4-triazole-3-carboxamide] | little or no antitumor effect | less effective than tiazofurin | 20-30% |  |
| NC(=O)c1csc([C@@H]2O[C@H](CO)[C@@H](O)[C@H]2O)n1 [tiazofurin, 2-β-D-ribofuranosylthiazole-4-carboxamide] |  |  |  | 10 |
